Assay results taken from ChEMBL document CHEMBL1177708, “Design, synthesis, and biological evaluation of a novel class of gamma-secretase modulators with PPARgamma activity” (J Med Chem, 2010).
Calls of active or inactive are those of the source. No cut-off for these calls is given here.

How the values were obtained:
[1] = target: T1, Prostaglandin G/H synthase 2 (Homo sapiens) (UniProt P35354); test: Inhibition of human recombinant COX2 assessed as residual activity at 10 uM after 5 mins
T1 sequence (whole entry): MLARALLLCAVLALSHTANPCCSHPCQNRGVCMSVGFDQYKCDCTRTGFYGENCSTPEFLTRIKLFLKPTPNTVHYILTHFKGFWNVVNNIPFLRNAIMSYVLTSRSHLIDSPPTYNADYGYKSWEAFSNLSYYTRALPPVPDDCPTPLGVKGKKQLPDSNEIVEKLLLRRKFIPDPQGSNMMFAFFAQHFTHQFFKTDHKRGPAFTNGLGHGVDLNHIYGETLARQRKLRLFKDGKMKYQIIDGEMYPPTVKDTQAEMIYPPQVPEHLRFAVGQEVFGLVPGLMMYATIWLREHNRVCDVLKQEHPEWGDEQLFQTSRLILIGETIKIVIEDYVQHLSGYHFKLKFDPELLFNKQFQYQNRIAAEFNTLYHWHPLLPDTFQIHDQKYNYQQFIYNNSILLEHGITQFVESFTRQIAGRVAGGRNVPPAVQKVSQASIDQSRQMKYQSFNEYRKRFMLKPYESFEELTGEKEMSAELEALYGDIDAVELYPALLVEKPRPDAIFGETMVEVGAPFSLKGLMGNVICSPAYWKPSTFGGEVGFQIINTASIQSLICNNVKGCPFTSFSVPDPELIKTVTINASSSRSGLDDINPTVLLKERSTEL

[2] = target: T2, Peroxisome proliferator-activated receptor alpha (Homo sapiens) (UniProt Q07869); test: Agonist activity at human PPARalpha-LBD expressed in COS7 cells co-transfected with Gal4 at 10 uM by luciferase based transactivation assay; type: functional, cell-based; details: COS-7
T2 sequence (whole entry): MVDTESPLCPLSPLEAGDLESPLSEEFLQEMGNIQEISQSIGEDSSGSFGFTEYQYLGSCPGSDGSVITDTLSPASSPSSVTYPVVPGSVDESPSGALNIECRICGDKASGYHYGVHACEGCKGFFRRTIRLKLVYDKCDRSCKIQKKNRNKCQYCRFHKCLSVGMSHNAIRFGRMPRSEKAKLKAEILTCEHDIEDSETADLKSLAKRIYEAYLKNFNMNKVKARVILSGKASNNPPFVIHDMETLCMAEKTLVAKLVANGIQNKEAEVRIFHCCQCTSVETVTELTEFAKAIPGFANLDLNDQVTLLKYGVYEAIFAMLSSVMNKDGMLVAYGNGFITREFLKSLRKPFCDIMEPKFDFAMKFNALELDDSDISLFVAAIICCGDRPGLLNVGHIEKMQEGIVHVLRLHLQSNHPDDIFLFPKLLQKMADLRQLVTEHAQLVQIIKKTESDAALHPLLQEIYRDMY

[3] = target: T3, Peroxisome proliferator-activated receptor delta (Homo sapiens) (UniProt Q03181); test: Agonist activity at human PPARdelta-LBD expressed in COS7 cells co-transfected with Gal4 at 10 uM by luciferase based transactivation assay; type: functional, cell-based; details: COS-7
T3 sequence (whole entry): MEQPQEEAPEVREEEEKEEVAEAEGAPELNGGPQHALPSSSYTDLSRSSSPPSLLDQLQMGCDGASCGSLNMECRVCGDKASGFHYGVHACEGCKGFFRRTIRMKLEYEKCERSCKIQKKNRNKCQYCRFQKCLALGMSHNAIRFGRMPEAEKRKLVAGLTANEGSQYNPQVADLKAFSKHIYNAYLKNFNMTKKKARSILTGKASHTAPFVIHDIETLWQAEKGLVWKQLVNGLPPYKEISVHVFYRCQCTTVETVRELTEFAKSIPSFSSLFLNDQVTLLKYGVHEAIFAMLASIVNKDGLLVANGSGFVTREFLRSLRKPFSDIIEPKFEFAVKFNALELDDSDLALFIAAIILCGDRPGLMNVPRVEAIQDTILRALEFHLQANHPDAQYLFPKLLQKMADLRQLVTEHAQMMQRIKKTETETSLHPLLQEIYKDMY

[4] = target: T4, Peroxisome proliferator-activated receptor gamma (Homo sapiens) (UniProt P37231); test: Agonist activity at human PPARgamma-LBD expressed in COS7 cells co-transfected with Gal4 by luciferase based transactivation assay relative to pioglitazone; type: functional, cell-based; details: COS-7
T4 sequence (whole entry): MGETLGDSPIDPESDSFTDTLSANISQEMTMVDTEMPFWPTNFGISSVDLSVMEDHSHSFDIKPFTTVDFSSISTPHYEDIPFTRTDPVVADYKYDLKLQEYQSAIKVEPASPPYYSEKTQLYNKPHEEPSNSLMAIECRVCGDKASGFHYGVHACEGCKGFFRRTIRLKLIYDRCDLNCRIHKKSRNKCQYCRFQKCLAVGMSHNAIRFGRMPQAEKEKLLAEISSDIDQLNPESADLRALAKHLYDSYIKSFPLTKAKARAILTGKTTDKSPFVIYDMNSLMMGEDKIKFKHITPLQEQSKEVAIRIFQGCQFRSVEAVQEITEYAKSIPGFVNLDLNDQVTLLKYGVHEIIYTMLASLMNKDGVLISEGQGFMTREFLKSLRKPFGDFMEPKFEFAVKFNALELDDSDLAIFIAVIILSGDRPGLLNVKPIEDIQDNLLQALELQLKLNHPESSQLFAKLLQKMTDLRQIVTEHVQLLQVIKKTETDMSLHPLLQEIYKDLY

[5] = Modulation of gamma-secretase-mediated cleavage of human APP expressed in CHO cells with human presenilin-1 assessed as activation of amyloid beta38 production after 24 hrs by ELISA; type: cell-based
[6] = tested on: CHO; test: Cytotoxicity against CHO cells at 60 uM after 24 hrs by Alamar blue assay; type: cell-based, Cricetulus griseus; details: chinese hamster
[7] = target: T5, Prostaglandin G/H synthase 1 (Ovis aries) (UniProt P05979); test: Inhibition of ovine COX1 assessed as residual activity at 10 uM after 5 mins
T5 sequence (whole entry): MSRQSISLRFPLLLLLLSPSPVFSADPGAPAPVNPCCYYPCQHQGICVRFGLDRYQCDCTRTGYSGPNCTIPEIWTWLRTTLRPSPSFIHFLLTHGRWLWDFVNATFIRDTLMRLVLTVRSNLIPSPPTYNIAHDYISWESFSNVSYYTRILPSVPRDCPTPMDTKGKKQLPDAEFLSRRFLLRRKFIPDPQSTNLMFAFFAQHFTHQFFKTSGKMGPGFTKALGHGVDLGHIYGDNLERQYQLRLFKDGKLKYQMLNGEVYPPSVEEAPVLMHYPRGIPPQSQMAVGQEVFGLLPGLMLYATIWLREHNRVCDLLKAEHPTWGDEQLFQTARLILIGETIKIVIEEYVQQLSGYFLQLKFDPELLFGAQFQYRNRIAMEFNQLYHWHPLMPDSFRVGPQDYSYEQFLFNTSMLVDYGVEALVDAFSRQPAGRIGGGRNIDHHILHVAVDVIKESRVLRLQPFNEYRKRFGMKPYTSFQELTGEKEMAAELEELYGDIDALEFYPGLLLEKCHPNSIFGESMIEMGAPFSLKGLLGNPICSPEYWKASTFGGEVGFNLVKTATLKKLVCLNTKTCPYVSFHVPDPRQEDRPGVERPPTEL

[8] = cells; details: CHO, 24 h
Description: Modulation of gamma-secretase-mediated cleavage of human APP expressed in CHO cells with human presenilin-1 assessed as inhibition of amyloid beta42 production after 24 hrs by ELISA

[9] = target: T6, Peroxisome proliferator-activated receptor gamma (Homo sapiens, UniProt P37231); test: Agonist activity at human PPARgamma-LBD expressed in COS7 cells co-transfected with Gal4 by luciferase based transactivation assay; type: functional, cell-based, COS-7
T6 sequence (P37231 whole entry): T4 sequence (whole entry)

[10] = target: T7, Prostaglandin G/H synthase 1 (Ovis aries, UniProt P05979)
T7 sequence (P05979 whole entry): T5 sequence (whole entry)
Description: Inhibition of ovine COX1 after 5 mins

[11] = tested on: CHO; test: Modulation of gamma-secretase-mediated notch signaling expressed in CHO cells transfected with Gal4-DNA-binding/VP16 transactivation domain assessed as reduction of reporter activity at 5 to 40 uM after 24 hrs; type: cell-based

Row | Activity [1] [%] | Activity [2] | Activity [3] | Emax [4] [%] | EC50 [5] [µM] | Activity [7] [%] | IC50 [8] [µM] | EC50 [9] [µM] | IC50 [10] [µM] | Compound | Activity [6] | Activity [11]
1 | 93.3 | inactive | inactive | 63 | 6.4 | 57.2 | 13 | 7.5 | – | CCCCC(Sc1nc(OCCc2ccc(C)cc2)cc(OCCc2ccc(C)cc2)n1)C(=O)O (configuration not stated) | Non-toxic | –
2 | 53.9 | inactive | inactive | 55 | 16.4 | 78.8 | 22.9 | 10 | – | CCCCC(Sc1nc(OCCCCc2ccccc2)cc(OCCCCc2ccccc2)n1)C(=O)O (configuration not stated) | Non-toxic | –
3 | 51.9 | inactive | inactive | 71 | 16.4 | 78.8 | 30.9 | 8.9 | – | CCCCC(Sc1nc(OCCCc2ccccc2)cc(OCCCc2ccccc2)n1)C(=O)O (configuration not stated) | Non-toxic | –
4 | 92.8 | inactive | inactive | 62 | 13.5 | 83.5 | 32.6 | 10.4 | – | CCCC[C@H](Sc1nc(OCCc2ccccc2)cc(OCCc2ccccc2)n1)C(=O)O | Non-toxic | –
5 | 56.9 | inactive | inactive | 57 | 31.1 | 84.6 | 41.6 | 6.1 | – | CCC(Sc1nc(OCCc2ccccc2)cc(OCCc2ccccc2)n1)C(=O)O (configuration not stated) | Non-toxic | –
6 | 63.8 | inactive | inactive | 59 | 24.2 | 61.8 | 30.4 | 8.8 | – | CCCCCCC(Sc1nc(OCCc2ccccc2)cc(OCCc2ccccc2)n1)C(=O)O (configuration not stated) | Non-toxic | –
7 | 90.9 | inactive | inactive | 61 | 11.3 | 64.2 | 22.8 | 8.3 | 18.7 | CCCCC(Sc1nc(OCCc2ccccc2)cc(OCCc2ccccc2)n1)C(=O)O (configuration not stated) | Non-toxic | –
8 | 91.7 | inactive | inactive | 111 | > 40 | 91.8 | > 40 | 3.7 | – | O=C(O)CSc1nc(OCCc2ccccc2)cc(OCCc2ccccc2)n1 | Non-toxic | –

Further lines, the molecule ahead of its results:

Row | Compound | Activity [1] [%] | Activity [2] | Activity [3] | Emax [4] [%] | EC50 [5] [µM] | Activity [7] [%] | IC50 [8] [µM] | EC50 [9] [µM] | IC50 [10] [µM] | Activity [6] | Activity [11]
9 | CCCCC(Sc1nc(OCCC2CCCC2)cc(OCCC2CCCC2)n1)C(=O)O (configuration not stated) | 84.7 | inactive | inactive | 127 | 9 | 68.2 | 17.2 | – | – | Non-toxic | –
10 | CSc1ccc(/C=C2/C(C)=C(CC(=O)O)c3cc(F)ccc32)cc1 [SULINDAC SULFIDE] | – | – | – | – | – | – | 34 | – | 0.05 | – | –
11 | CCCCC(Sc1nc(OCCC2CCCCC2)cc(OCCC2CCCCC2)n1)C(=O)O (configuration not stated) | 49.5 | inactive | inactive | 71 | 4.6 | 52.7 | 5.1 | 6.6 | 13.4 | Non-toxic | inactive
12 | COc1ccc2c(c1)c(CC(=O)O)c(C)n2C(=O)c1ccc(Cl)cc1 [INDOMETHACIN] | – | – | – | – | – | – | 25 | – | – | – | –
13 | CCCCC(Sc1nc(OCCC(C)C)cc(OCCC(C)C)n1)C(=O)O (configuration not stated) | 80.5 | inactive | inactive | 69 | 10.9 | 72.4 | 28.2 | 11 | – | Non-toxic | –
14 | CCCCC(Sc1nc(OCCc2ccc(OC(F)(F)F)cc2)cc(OCCc2ccc(OC(F)(F)F)cc2)n1)C(=O)O (configuration not stated) | 75.8 | inactive | inactive | 115 | 5.5 | 73 | 8.6 | 10.3 | – | Non-toxic | –
15 | CCCCC(Sc1nc(OCCC2CC2)cc(OCCC2CC2)n1)C(=O)O (configuration not stated) | 87.9 | inactive | inactive | 79 | 24 | 97.7 | > 40 | 4.3 | – | Non-toxic | –
16 | CC(C(=O)O)c1ccc2c(c1)[nH]c1ccc(Cl)cc12 (configuration not stated) [CARPROFEN] | – | – | – | – | – | – | 305 | – | 13 | – | –
17 | CCCCC(Sc1nc(OCCc2ccc(C#N)cc2)cc(OCCc2ccc(C#N)cc2)n1)C(=O)O (configuration not stated) | 82.6 | inactive | inactive | 65 | – | 88.8 | > 40 | 7 | – | Non-toxic | –
